Results on 11 molecules are retold here after patent US5716956A, “Dihydrophthalazine antagonists of excitatory amino acid receptors” (Bearsden Bearsden Bio, Inc., priority 1996, dated 1998).

pIC50: −log10 of the molar value. Read-outs that look alike come from different tables or passages of the source.

One test deals with AMPA receptor. As to the kind of experiment: AMPA receptor inhibition, whole-cell patch clamp, KA-stimulated currents in primary cultures of rat neocortex. As to conditions: rat cortical neurons; for AMPA % INHIBITION (10 μM drug): KA 50 μM; for pIC50: 5 doses. The format is cell-based. The protocol:
The potency of Examples 1-5, 7, 11, 17 and 31 listed in Table 1, for drug inhibition of the AMPA receptor was tested using the whole-cell patch clamp technique on primary cultures of rat neocortex. The general procedure for stimulating AMPA-receptor mediated currents with KA and for the measurement of current inhibition is based on that used by Donevan and Rogawski (Neuron, 10:51-59, 1993) for 2,3-benzodiazepines.
Standard extracellular bath solutions and intracellular pipette solutions are used as described in detail by Hussy and coworkers (J. Physiol. (Lond.), 481.2:311-323,1994). The drug application system is designed to allow rapid switching between 7 different reservoirs containing either control bath solution, kainic acid (50 μM), or kainic acid (50 μM) plus antagonist (10 μM). Each recording is begun with a control response to KA alone.
Following the establishment of a 2-3 sec duration steady baseline, bathing solution is switched to one containing KA plus antagonist for an additional 2-3 sec period. Alternatively, 5 different doses of a single compound are tested for the determination of the antagonist IC50. The results of the assay of Examples 1-5, 7, 11, 17 and 31 are listed below in Table 3, which illustrates AMPA receptor inhibition in rat cortical neurons. The compounds tested all were useful as antagonists of non-NMDA EAA receptors.

Another test has as its system global ischemia. As to conditions: rat common carotid arteries model; cited from earlier work.
A further test deals with cortical infarct volumes. Particulars: cited from earlier work.
For another test, the system named is Male NIH Swiss mice. As to the kind of experiment: Maximum Electro Shock (MES) Seizure Test. Particulars: ip, 0.5 hours. Type of test: in vivo. How it is done: The extent of protection by a test compound in a seizure model is tested as described by Rogawski et al. (Epilepsy Research, 15:179-184, 1993). Male NIH Swiss mice (25-30 g) are injected ip with the test drug. The mice are subjected to a 0.2 sec, 60 Hz, 50 mA electrical stimulus delivered with corneal electrodes wetted with 0.9% saline at 15-30 min post dosing. Animals failing to show tonic hind limb extension are scored as protected. Compounds may be selected which are active in this model.

Another test concerns Mice. As to the kind of experiment: Subcutaneous Metrazol (scMET) Seizure Test. As to conditions: 30 mg/kg, 0.5 hr, metrazol 90 mg/kg sc. The format is in vivo. How it is done:
This test is to determine the extent of protection by a test compound in a seizure model. The method used is that of Chen et at. (Proc. Soc. Exp. Biol. Med., 87:334, 1954). Mice are randomly assigned to vehicle or treatment groups of 3-10 animals per group and then dosed accordingly. Metrazol (pentylenetetrazol) 90 mg/kg is administered subcutaneously (sc) at different time points (0.25, 0.5, 1, 2, 4 hr) after the treatment or control groups. The mice individually housed in clear runs and observed for the presence or absence of clonic seizure activity (>5 s duration) for 30 min after metrazol dosing. A compound is considered active if no seizure is observed. Data is analyzed using a quantal measure (protection/number tested).

`CC1c2cc3c(cc2C(c2ccc(N)cc2)=NN1C(=O)N(C)C)OCO3` (stereo not drawn) [Example 31, 4-(4-Aminophenyl)-1,2-dihydro-2-(N,N-dimethylcarbamoyl)-1-methyl-6,7-methylendioxyphthalazine]: the “AMPA % INHIBITION (10 μM drug)” value in the test with AMPA receptor amounted to 33%.

For `CC(=O)N1N=C(c2ccc(N)cc2)c2cc3c(cc2C1C)OCO3` (stereo not drawn) [Example 17], the “AMPA % INHIBITION (10 μM drug)” value in the test on AMPA receptor was found to be 20%.

As for `CC1=NN=C(c2ccc(N)cc2)c2cc3c(cc2C1)OCO3` [GYKI 52466], in the test on global ischemia, the “effectiveness in global ischemia compared with NBQX” value was “as effective as the glutamate site competitive antagonist NBQX”. Besides, the “reduction of cortical infarct volumes” value is 48% with cortical infarct volumes (delayed for one hour) and 68% with cortical infarct volumes (given continuously for 2 hours just after occlusion).

For `CCCNC(=O)N1N=C(c2ccc(N)cc2)c2cc3c(cc2C1C)OCO3` (stereo not drawn) [Example 3, 4-(4-Aminophenyl)-1,2-dihydro-1-methyl-2-propylcarbamoyl-6,7-methylendioxyphthalazine], the “MES Score (protected/no. tested)” value in the test on Male NIH Swiss mice (31 mg/kg) is 5/8. In the test on AMPA receptor, the “AMPA % INHIBITION (10 μM drug)” value is listed as 80% and the negative logarithm of the IC50 (pIC50) was 5.55.

In the case of `CCC1c2cc3c(cc2C(c2ccc(N)cc2)=NN1C(=O)NC)OCO3` (stereo not drawn) [Example 11, 4-(4-Aminophenyl)-1,2-dihydro-1-ethyl-2-methylcarbamoyl-6,7-methylendioxyphthalazine], the “AMPA % INHIBITION (10 μM drug)” value with AMPA receptor was determined as 36%.

Take `CC(C)NC(=O)N1N=C(c2ccc(N)cc2)c2cc3c(cc2C1C)OCO3` (stereo not drawn) [Example 4, 4-(4-Aminophenyl)-1,2-dihydro-1-methyl-2-isopropylcarbamoyl-6,7-methylendioxyphthalazine]: the “AMPA % INHIBITION (10 μM drug)” value with AMPA receptor is listed as 45%.

As for `CCNC(=O)N1N=C(c2ccc(N)cc2)c2cc3c(cc2C1C)OCO3` (stereo not drawn) [Example 2, 4-(4-Aminophenyl)-1,2-dihydro-2-(N-ethylcarbamoyl)-1-methyl-6,7-methylendioxyphthalazine], in the test on Male NIH Swiss mice (30 mg/kg), the “MES Score (protected/no. tested)” value is recorded as 3/3. For the same molecule, in the test with AMPA receptor, the “AMPA % INHIBITION (10 μM drug)” value is given as 55% and the pIC50 is 5.14.

As for `CNC(=O)N1N=C(c2ccc(N)cc2)c2cc3c(cc2C1C)OCO3` (stereo not drawn) [Example 1, 4-(4-Aminophenyl)-1,2-dihydro-1-methyl-2-(N"-methylcarbamoyl)-6,7-methylendioxyphthalazine], in the test with AMPA receptor, the “AMPA % INHIBITION (10 μM drug)” value is 20% and the negative logarithm of the IC50 (pIC50) was 4.64.

As to `CC1c2cc3c(cc2C(c2ccc(N)cc2)=NN1C(=O)NC(C)(C)C)OCO3` (stereo not drawn) [Example 7], in the test with AMPA receptor, the “AMPA % INHIBITION (10 μM drug)” value came to 70% and the pIC50 was 5.27.

Regarding `CCCNC(=O)N1N=C(c2ccc(N)cc2)c2cc(OC)c(OC)cc2C1C` (stereo not drawn) [Example 133], the “MES Score (protected/no. tested)” value with Male NIH Swiss mice (30 mg/kg) is listed as 1/3. Also, in the test with Mice, the “scMET Score (protect./no. tested)” value was 1/5.

Regarding `CCCCNC(=O)N1N=C(c2ccc(N)cc2)c2cc3c(cc2C1C)OCO3` (stereo not drawn) [Example 5, 4-(4-Aminophenyl)-1,2-dihydro-1-methyl-2-n-butylcarbamoyl-6,7-methylenedioxyphthalazine], in the test with AMPA receptor, the “AMPA % INHIBITION (10 μM drug)” value came out at 86% and the pIC50 was 5.74.

What is called pIC50 is −log10 of the IC50, conventionally taken in molar units. Lower therefore signals a large IC50.
